Data taken from ChEMBL document CHEMBL4813995, “Synthesis and anti-trypanosomal activity of 3'-fluororibonucleosides derived from 7-deazapurine nucleosides” (Bioorg Med Chem Lett, 2021).

Tests used:
[1] = tested on: Trypanosoma brucei brucei; assay: Antitrypanosomal activity against Trypanosoma brucei brucei by drug sensitivity assay; format: functional, organism-based
HL-60 = assay: Cytotoxicity against human HL-60 cells assessed as reduction in cell viability by XTT assay; format: functional, cell-based
HepG2 = assay: Cytotoxicity against human HepG2 cells assessed as reduction in cell viability by XTT assay; format: functional, cell-based
HeLa S3 = assay: Cytotoxicity against human HeLa S3 cells assessed as reduction in cell viability by XTT assay; format: functional, cell-based
[2] = Selective index, ratio of IC50 for human NHDF cells to EC50 for Trypanosoma brucei brucei; format: toxicity; conditions: read-out: Ratio IC50/EC50
CCRF-CEM = assay: Cytotoxicity against human CCRF-CEM cells assessed as reduction in cell viability by XTT assay; format: functional, cell-based
NHDF = assay: Cytotoxicity against human NHDF cells assessed as reduction in cell viability by XTT assay; format: cell-based
[3] = tested on: Trypanosoma brucei gambiense; assay: Antitrypanosomal activity against Trypanosoma brucei gambiense by drug sensitivity assay; format: functional, organism-based
[4] = Selective index, ratio of IC50 for human NHDF cells to EC50 for Trypanosoma brucei gambiense; format: toxicity; conditions: read-out: Ratio IC50/EC50

| Structure (SMILES) | EC50 [1] [µM] | IC50 (HL-60) [µM] | IC50 (HepG2) [µM] | IC50 (HeLa S3) [µM] | selectivity ratio [2] | IC50 (CCRF-CEM) [µM] | IC50 (NHDF) [µM] | EC50 [3] [µM] | selectivity ratio [4] |
| --- | --- | --- | --- | --- | --- | --- | --- | --- | --- |
| Nc1ncnc2c1c(-c1cccs1)cn2[C@@H]1O[C@H](CO)[C@@H](F)[C@H]1O | 4.92 | > 10 | > 10 | > 10 | > 2 | > 10 | > 10 |  |  |
| Nc1ncnc2c1c(-c1ccc(Cl)cc1)cn2[C@@H]1O[C@H](CO)[C@@H](F)[C@H]1O | 0.49 | > 10 | > 10 | > 10 | > 20 | > 10 | > 10 | 0.99 | > 10 |
| Nc1ncnc2c1c(-c1cccc3c1oc1ccccc13)cn2[C@@H]1O[C@H](CO)[C@@H](F)[C@H]1O | 15.4 | > 10 | > 10 | > 10 |  | > 10 | > 10 |  |  |
| Nc1ncnc2c1c(-c1ccco1)cn2[C@@H]1O[C@H](CO)[C@@H](F)[C@H]1O | 1.59 | > 10 | > 10 | > 10 | > 6 | > 10 | > 10 |  |  |
| Nc1ncnc2c1ccn2[C@@H]1O[C@H](CO)[C@@H](F)[C@H]1O | 6 | > 10 | > 10 | > 10 | > 1.7 | > 10 | > 10 |  |  |
| Nc1ncnc2c1c(Br)cn2[C@@H]1O[C@H](CO)[C@@H](F)[C@H]1O | 0.048 | > 10 | > 10 | > 10 | > 208 | > 10 | > 10 | 0.037 | > 270 |
| Nc1ncnc2c1c(I)cn2[C@@H]1O[C@H](CO)[C@@H](F)[C@H]1O | 0.015 | 1.13 | 1.1 | 6.3 | > 666 | 4.5 | > 10 | 0.022 | > 455 |
| Nc1ncnc2c1c(-c1ccc3ccccc3c1)cn2[C@@H]1O[C@H](CO)[C@@H](F)[C@H]1O | 16.2 | > 10 | > 10 | > 10 |  | > 10 | > 10 |  |  |
